From patent EP4810052A2, “HCRHR2 SELECTIVE POLYPEPTIDES” (Gubra A/S, priority 2023, dated 2026)
Like-named read-outs stand apart in the source and are kept apart here. Starred links: 1 amine or outer side, 2 acyl side, 3 side chain; linkers in the order of their positions; H or OH if unused. Non-standard residues stand in square brackets, D forms with d. Residues, ends and D or L forms follow the SMILES beside them. Groups on a side chain read outwards from the residue. *: point of attachment. C20 diacid = O=C(O)CCCCCCCCCCCCCCCCCCC(=O)*; γGlu = O=C(O)[C@H](CCC(=O)[*:2])N[*:1]; Nle = CCCC[C@H](N)C(=O)O; AEEA = NCCOCCOCC(=O)O; Aib = CC(C)(N)C(=O)O

Tests used:
[1] = Dynamic Light Scattering (DLS) of peptide oligomerisation/particle formation; type: physicochemical; settings: average of three replica
Experimental: Samples were prepared by dissolving 800 nmol of each peptide in 400 µl 50 mM phosphate pH 8.0 to a concentration of 2000 µM (ca 10 mg/ml). After fully dissolution for 2 hours on a rocking table, samples were adjusted to pH 7.5 and filtrated through a 0.2 µm Whatman Anotop filter. Comparators were commercially available liraglutide drug product (Victoza®, Novo Nordisk) pH 8.2, and an aliquot of this drug product adjusted to pH 6.7. These samples were filtrated through a 0.02 µm Whatman Anotop filter.
Samples were pipetted as triplicate of 30 µl to an Aurora 384 well microtiter plate, which was centrifuged for 2 minutes at 2200 rpm and then sealed with a Thermo sealing tape 235307. DLS measurements were done in a Wyatt DynaPro platereader III with the following parameters:
The microtiter plate was incubated in a Grant-bio Thermo Shaker PHMP-4 at 40°C with 700 rpm continuous shaking before subsequent DLS measurements. Data analysis was done using Wyatt Dynamics software ver. 7.10.1.21.
Samples were prepared and measured as described in procedure. The hydrodynamic radii (Rh) and associated polydispersity (PD) resulting from cumulant analysis (assuming one species) are shown in the Table 8 as averages of three replica. T0 indicates the measurement at time zero after sample preparation; T5 indicates the measurements of five days of incubation as described above.

[2] = Thioflavin T fibril formation assay of purified peptides; type: physicochemical; parameters: key: Amyloid fibril formation detected by an increase in ThT fluorescence was denoted with "Yes"; samples without increasing ThT fluorescence hence not forming amyloid fibrils were denoted "No"
Outline: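 Compounds at 200 µM in 50 mM phosphate buffer at the stated pH values, or at 200 µM in semaglutide drug product adjusted to pH 7.4, with 4 µM ThT final. Fibrillation followed as ThT fluorescence (ex 450/em 480 nm) over 96 h at 40°C, with 5 min shaking at 700 rpm alternating with 5 min rest; triplicates.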

PK in rats = type: in vivo; parameters: T½ / MRT: unit not given here; settings: Rat
Experimental: Lean male Sprague Dawley rats (RJHan:SD) were obtained from JanVier (JanVier Labs, France) at 7 weeks of age. The animals were pair housed until randomization under a 12/12 h dark-light cycle, light off at 3 PM. Room temperature was controlled to 22°C ± 1°C, with 60 % ± 20% humidity.
Animals had ad libitum access to regular rodent chow (Altromin 1324, Brogaarden, Denmark) and tap water.
After 2 weeks of acclimatization, the animals were single housed and randomized into treatment groups (n = 3 per group) based on body weight on study day -3. On study day 1, animals were dosed 50 nmol/kg IV and SC in combination of two peptides. Plasma samples were collected for PK analysis at times 0.17, 1, 3, 6, 24, 30, 48, 72 and 96 hours post dosing. Plasma samples were analyzed using LC-MSMS and PK parameters were estimated by Non-Compartmental Analysis (NCA).

[3] = pH 7.5
[4] = Chemical stability of purified peptides (RP-UHPLC main peak purity loss); type: physicochemical
Outline: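 Peptides at about 1.0 mg/ml in 50 mM phosphate buffer pH 7.5, or pH-adjusted for the pH series, were incubated at 40 °C for 14 and 28 days. Main-peak purity was taken as main-peak area over total area by RP-UHPLC (UV 215 nm, C8, 50 °C). Purity loss was calculated versus T0.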

hCRHR1 = molecular target: T1, hCRHR1 (Homo sapiens, UniProt P34998); test: HTRF cAMP assay, determination of hCRHR1 potency (peptide libraries 5 conc., purified peptides 11 conc.); type: cell-based; settings: read-out: hCRHR1 EC50
T1 sequence (P34998 24-415): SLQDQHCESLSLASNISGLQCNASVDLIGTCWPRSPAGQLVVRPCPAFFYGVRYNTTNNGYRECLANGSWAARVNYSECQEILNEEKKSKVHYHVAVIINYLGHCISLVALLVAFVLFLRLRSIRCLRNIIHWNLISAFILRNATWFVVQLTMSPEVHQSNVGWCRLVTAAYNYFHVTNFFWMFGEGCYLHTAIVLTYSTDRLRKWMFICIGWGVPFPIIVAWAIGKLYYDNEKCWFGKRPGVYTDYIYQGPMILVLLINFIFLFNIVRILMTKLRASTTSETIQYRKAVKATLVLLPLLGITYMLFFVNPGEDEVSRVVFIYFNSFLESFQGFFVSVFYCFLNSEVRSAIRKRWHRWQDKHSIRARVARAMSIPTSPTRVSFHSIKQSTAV
Outline: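 CHO-K1 cells stably expressing human CRHR1, thawed from frozen stocks just before use, were stimulated in suspension with agonist peptides. cAMP was measured by HTRF competitive immunoassay (cryptate anti-cAMP antibody vs d2-cAMP).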

hCRHR2 = molecular target: T2, hCRHR2 (Homo sapiens, UniProt Q13324); test: HTRF cAMP assay, determination of hCRHR2 potency (peptide libraries 5 conc., purified peptides 11 conc.); type: cell-based; settings: for EC50: read-out: hCRHR2 EC50
T2 sequence (Q13324 1-411): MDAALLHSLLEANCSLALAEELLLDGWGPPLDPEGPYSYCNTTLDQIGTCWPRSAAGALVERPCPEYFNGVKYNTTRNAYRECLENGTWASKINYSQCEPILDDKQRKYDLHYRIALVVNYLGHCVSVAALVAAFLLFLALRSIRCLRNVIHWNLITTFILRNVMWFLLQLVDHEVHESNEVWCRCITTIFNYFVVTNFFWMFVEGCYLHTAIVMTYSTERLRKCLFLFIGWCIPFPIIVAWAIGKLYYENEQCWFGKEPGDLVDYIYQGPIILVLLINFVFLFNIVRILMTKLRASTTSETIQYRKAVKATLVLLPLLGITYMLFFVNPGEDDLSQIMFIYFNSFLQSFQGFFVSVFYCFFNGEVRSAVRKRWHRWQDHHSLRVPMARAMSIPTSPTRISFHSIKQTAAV
Outline: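 CHO-K1 cells stably expressing human CRHR2, thawed from frozen stocks just before use and run in suspension; cAMP measured by competitive HTRF immunoassay (cryptate anti-cAMP, d2-cAMP). Agonist peptides tested at 5 (libraries) or 11 (purified) concentrations; EC50 from sigmoid variable-slope nonlinear regression.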

[5] = T0, time zero after sample preparation
[6] = T5, five days incubation at 40°C with continuous shaking

Molecule | PD (%) [1, 5] [%] | Rh (nm) [1, 5] [nm] | PD (%) [1, 6] | Rh (nm) [1, 6] [nm] | MRT (PK in rats) | T½ (PK in rats) | Solubility pH 7.5, target conc. =10 mg/mL (measured mg/mL) [3] [mg/mL] | also measured
liraglutide | 6.0 | 2.5 | Multimodal | 5.6 | – | – | – | –
Liraglutide pH 8.2 | 1.4 | 2.1 | 3.8% | 2.1 | – | – | – | –
CCCC[C@H](NC(=O)[C@@H](NC(=O)[C@H](CCC(=O)O)NC(=O)C(C)(C)NC(=O)[C@H](CC(N)=O)NC(=O)[C@@H](NC(=O)[C@H](CCCCNC(=O)COCCOCCNC(=O)COCCOCCNC(=O)CC[C@H](NC(=O)CC[C@H](NC(=O)CCCCCCCCCCCCCCCCCCC(=O)O)C(=O)O)C(=O)O)NC(=O)[C@H](C)NC(=O)[C@H](CCC(N)=O)NC(=O)[C@H](CCC(=O)O)NC(=O)[C@H](CCCNC(=N)N)NC(=O)[C@H](C)NC(=O)[C@H](C)NC(=O)[C@H](CCCNC(=N)N)NC(=O)[C@H](C)NC(=O)[C@H](CCCNC(=N)N)NC(=O)[C@H](C)NC(=O)[C@H](CCC(N)=O)NC(=O)[C@H](CO)NC(=O)[C@H](CC(C)C)NC(=O)[C@H](CC(C)C)NC(=O)[C@@H](NC(=O)[C@H](CCC(N)=O)NC(=O)[C@H](CC(C)C)NC(=O)[C@H](CC(C)C)NC(=O)CNC(=O)[C@@H](NC(=O)[C@@H]1CCCN1C(=O)[C@@H](NC(=O)[C@H](CC(=O)O)NC(=O)[C@H](CC(C)C)NC(=O)[C@H](CO)NC(=O)[C@H](CC(C)C)NC(=O)[C@@H](NC(=O)[C@@H](N)[C@@H](C)CC)C(C)C)C(C)C)[C@@H](C)CC)[C@@H](C)CC)[C@@H](C)O)[C@@H](C)CC)C(=O)N[C@@H](C)C(=O)N[C@@H](CCC(=O)O)C(=O)N[C@H](C(N)=O)C(C)C [compound 234] (H-IVLSLDVPIGLLQILLSQARARAAREQAK([AEEA-AEEA-γGlu-γGlu-C20 diacid])TN[Aib]EI[Nle]AEV-NH2) | – | – | – | – | 5.1 | 4.1 | 11 | Fibrillation (pH 7.5) ([2]; pH 7.5): No; Chemical stability at pH 7.5 after 14 days at 40°C (% degradation) ([4]; pH 7.5, 14 days, 40°C): -0.43%; Chemical stability at pH 7.5 after 28 days at 40°C (% degradation) ([4]; pH 7.5, 28 days, 40°C): -1.1%; EC50 (hCRHR1; Table 5, purified peptides): > 5000 nM; Selectivity ratio (hCRHR1/ hCRHR2) (hCRHR2; Table 5): >6250; EC50 (hCRHR2; Table 5, purified peptides): 0.8 nM
CC[C@H](C)[C@H](N)C(=O)N[C@H](C(=O)N[C@@H](CC(C)C)C(=O)N[C@@H](CO)C(=O)N[C@@H](CC(C)C)C(=O)N[C@@H](CC(=O)O)C(=O)N[C@H](C(=O)N1CCC[C@H]1C(=O)N[C@H](C(=O)NCC(=O)N[C@@H](CC(C)C)C(=O)N[C@@H](CC(C)C)C(=O)N[C@@H](CCC(N)=O)C(=O)N[C@H](C(=O)N[C@@H](CC(C)C)C(=O)N[C@@H](CC(C)C)C(=O)N[C@@H](CCC(=O)O)C(=O)N[C@@H](CCC(N)=O)C(=O)N[C@@H](C)C(=O)N[C@@H](CCCNC(=N)N)C(=O)N[C@@H](C)C(=O)N[C@@H](CCCNC(=N)N)C(=O)N[C@@H](C)C(=O)N[C@@H](C)C(=O)N[C@@H](CCCNC(=N)N)C(=O)N[C@@H](CCC(=O)O)C(=O)N[C@@H](CCC(N)=O)C(=O)N[C@@H](C)C(=O)N[C@@H](CCCCNC(=O)COCCOCCNC(=O)COCCOCCNC(=O)CC[C@H](NC(=O)CC[C@H](NC(=O)CCCCCCCCCCCCCCCCCCC(=O)O)C(=O)O)C(=O)O)C(=O)N[C@H](C(=O)N[C@@H](CC(N)=O)C(=O)NC(C)(C)C(=O)N[C@@H](CCC(=O)O)C(=O)N[C@H](C(=O)N[C@@H](CC(C)C)C(=O)N[C@@H](C)C(=O)N[C@@H](CCC(=O)O)C(=O)N[C@H](C(N)=O)C(C)C)[C@@H](C)CC)[C@@H](C)O)[C@@H](C)CC)[C@@H](C)CC)C(C)C)C(C)C [SEQ ID NO: 15] (H-IVLSLDVPIGLLQILLEQARARAAREQAK([AEEA-AEEA-γGlu-γGlu-C20 diacid])TN[Aib]EILAEV-NH2) | – | – | – | – | 8 | 7.7 | 9.8 | Fibrillation (pH 7.5) ([2]; pH 7.5, ThT assay): No; Chemical stability at pH 7.5 after 14 days at 40°C (% degradation) ([4]; pH 7.5, 40°C, 14 days, first value of cell): -1.0%; Chemical stability at pH 7.5 after 28 days at 40°C (% degradation) ([4]; pH 7.5, 40°C, 28 days, second value of cell): -1.2%; EC50 (hCRHR1; purified peptides, CHO-K1 cells stably expressing hCRHR1, cAMP HTRF): > 5000 nM; Selectivity ratio (hCRHR1/ hCRHR2) (hCRHR2; hCRHR1-EC50/hCRHR2-EC50): >2174; EC50 (hCRHR2; purified peptides, CHO-K1 cells stably expressing hCRHR2, cAMP HTRF): 2.3 nM
